Test results as given in the NIST ThermoML archive (doi:10.1016/j.fluid.2010.10.028).

Assay: xn = mol fraction of the nth substance listed
Conditions: Liquid, Vibrating tube method

CC(C)=O [acetone] + CCCCCCC
Conditions	mass density [kg/m3]
407.22 K, 24840 kPa, x1 = 0.492	637.87
407.22 K, 24850 kPa, x1 = 0.611	645.53
407.22 K, 24850 kPa, x1 = 0.801	663.77
407.22 K, 29850 kPa, x1 = 0.492	645.2
407.22 K, 29860 kPa, x1 = 0.801	671.47
407.22 K, 29870 kPa, x1 = 0.611	653.05
407.22 K, 34850 kPa, x1 = 0.801	678.52
407.22 K, 34860 kPa, x1 = 0.611	659.9
407.22 K, 39850 kPa, x1 = 0.801	685.05
407.22 K, 39860 kPa, x1 = 0.611	666.23
407.22 K, 44860 kPa, x1 = 0.801	691.11
407.22 K, 44870 kPa, x1 = 0.611	672.1
407.22 K, 49870 kPa, x1 = 0.611	677.58
407.22 K, 54850 kPa, x1 = 0.611	682.71
407.22 K, 59830 kPa, x1 = 0.611	687.58
407.22 K, 59840 kPa, x1 = 0.492	679.01
407.22 K, 59840 kPa, x1 = 0.801	707.14
407.22 K, 64930 kPa, x1 = 0.611	692.3
407.22 K, 69830 kPa, x1 = 0.801	716.45
407.22 K, 69920 kPa, x1 = 0.611	696.69
407.22 K, 74910 kPa, x1 = 0.611	700.88
407.22 K, 74920 kPa, x1 = 0.801	720.89
407.22 K, 79900 kPa, x1 = 0.611	704.88
407.22 K, 79920 kPa, x1 = 0.801	725.05
407.22 K, 84880 kPa, x1 = 0.611	708.71
407.22 K, 84890 kPa, x1 = 0.801	729.04
407.22 K, 89850 kPa, x1 = 0.611	712.41
407.22 K, 89860 kPa, x1 = 0.492	703.26
407.22 K, 89890 kPa, x1 = 0.801	732.88
407.22 K, 94740 kPa, x1 = 0.4	750.92
407.22 K, 94740 kPa, x1 = 0.8992	750.92
407.22 K, 94840 kPa, x1 = 0.611	715.96
407.22 K, 94870 kPa, x1 = 0.801	736.56
407.22 K, 99720 kPa, x1 = 0.4	754.58
407.22 K, 99720 kPa, x1 = 0.8992	754.58
407.22 K, 99820 kPa, x1 = 0.611	719.38
407.22 K, 99840 kPa, x1 = 0.801	740.12
407.22 K, 104690 kPa, x1 = 0.4	758.09
407.22 K, 104690 kPa, x1 = 0.8992	758.09
407.22 K, 104790 kPa, x1 = 0.611	722.68
407.22 K, 104820 kPa, x1 = 0.801	743.55
407.22 K, 109650 kPa, x1 = 0.4	761.5
407.22 K, 109650 kPa, x1 = 0.8992	761.5
407.22 K, 109770 kPa, x1 = 0.492	716.44
407.22 K, 109790 kPa, x1 = 0.801	746.89
407.22 K, 109860 kPa, x1 = 0.611	725.93
407.22 K, 114620 kPa, x1 = 0.4	764.8
407.22 K, 114620 kPa, x1 = 0.8992	764.8
407.22 K, 114770 kPa, x1 = 0.801	750.12
407.22 K, 114860 kPa, x1 = 0.492	719.55
407.22 K, 114870 kPa, x1 = 0.611	729.06
407.22 K, 119590 kPa, x1 = 0.4	768
407.22 K, 119590 kPa, x1 = 0.8992	768
407.22 K, 119840 kPa, x1 = 0.492	722.47
407.22 K, 119840 kPa, x1 = 0.801	753.32
407.22 K, 119850 kPa, x1 = 0.611	732.05
407.22 K, 124560 kPa, x1 = 0.4	771.11
407.22 K, 124560 kPa, x1 = 0.8992	771.11
407.22 K, 124850 kPa, x1 = 0.492	725.34
407.22 K, 124850 kPa, x1 = 0.611	735.01
407.22 K, 124850 kPa, x1 = 0.801	756.37
407.22 K, 129820 kPa, x1 = 0.4	774.33
407.22 K, 129820 kPa, x1 = 0.8992	774.33
407.22 K, 129840 kPa, x1 = 0.611	737.84
407.22 K, 129840 kPa, x1 = 0.801	759.34
407.23 K, 4820 kPa, x1 = 0.7024	611.92
407.23 K, 9850 kPa, x1 = 0.492	610.28
407.23 K, 14860 kPa, x1 = 0.492	620.71
407.23 K, 19860 kPa, x1 = 0.492	629.81
407.23 K, 24820 kPa, x1 = 0.7024	653.51
407.23 K, 29820 kPa, x1 = 0.7024	661.13
407.23 K, 34840 kPa, x1 = 0.492	651.87
407.23 K, 39860 kPa, x1 = 0.492	658.08
407.23 K, 44850 kPa, x1 = 0.492	663.81
407.23 K, 49840 kPa, x1 = 0.801	696.75
407.23 K, 49850 kPa, x1 = 0.492	669.19
407.23 K, 54850 kPa, x1 = 0.801	702.09
407.23 K, 54860 kPa, x1 = 0.492	674.25
407.23 K, 64830 kPa, x1 = 0.492	683.5
407.23 K, 64830 kPa, x1 = 0.801	711.9
407.23 K, 69930 kPa, x1 = 0.492	687.88
407.23 K, 74910 kPa, x1 = 0.492	691.98
407.23 K, 79890 kPa, x1 = 0.492	695.9
407.23 K, 84870 kPa, x1 = 0.492	699.66
407.23 K, 94840 kPa, x1 = 0.492	706.73
407.23 K, 99820 kPa, x1 = 0.492	710.09
407.23 K, 104790 kPa, x1 = 0.492	713.3
407.23 K, 129830 kPa, x1 = 0.492	728.11
407.24 K, 1620 kPa, x1 = 0.7024	602.1
407.24 K, 9830 kPa, x1 = 0.7024	624.8
407.24 K, 14840 kPa, x1 = 0.7024	635.66
